Patent US11596632B2, “JAK1 pathway inhibitors for the treatment of gastrointestinal disease” (Incyte Corporation, priority 2018, dated 2023)
Entries after “also recorded” stand apart in the source; their conditions may differ.

Tested on: IL-10 knockout mouse model of spontaneous colitis
Assay: IL-10 knockout mouse model of spontaneous colitis
Assay type: in vivo
Text: The interleukin-10 (IL-10) knockout (KO) mouse model mirrors the multifactorial nature of inflammatory bowel disease (IBD), such as ulcerative colitis and Crohn's disease, as IL-10 KO mice, BALB/cAnNTac-1110^em7Tac, spontaneously develop colitis. Colitis in IL-10 KO mice results from an aberrant response of CD4^+ T helper 1-like T cells and an excessive secretion of the proinflammatory cytokines that signal through the Janus kinase/signal transducers and activators of transcription (JAK/STAT) pathway. Compound 1 is a potent JAK1 inhibitor with 22 to >500-fold selectivity for JAK2, JAK3 and TYK2, and is currently being investigated as a monotherapy in a clinical trial for moderate-to-severe ulcerative colitis.
Female IL-10 homozygote knockout mice on the BALB/c strain background were provided by Taconic (USA). From 6 weeks of age onwards, Compound 1 and vehicle (10 mL/kg) were administered by oral gavage twice daily. Diarrhea was quantified on a 0-3 rating scale, (0=normal; 1=soft but still formed; 2=very soft; 3=diarrhea). Mice were euthanized by CO2 asphyxiation and colon length and weight measured. Tissue pathology was scored on a scale of 0 to 10 based on the following criteria: Lymphocytic infiltrate in the mucosa and the gut associated lymphoid tissue located in the lamina propria/submucosa, mucosal erosions/ulcerations, and transmural inflammation. Body weight, stool consistency, fecal occult blood and rectal bleeding were scored. The incidence of rectal prolapse was recorded.

[1] = 30 mg/kg oral twice daily, vs vehicle

## N#CCC1(n2cc(-c3ncnc4[nH]ccc34)cn2)CN(C2CCN(C(=O)c3ccnc(C(F)(F)F)c3F)CC2)C1 [Compound 1, {1-{1-[3-Fluoro-2-(trifluoromethyl)isonicotinoyl]piperidin-4-yl}-3-[4-(7H-pyrrolo[2,3-d]pyrimidin-4-yl)-1H-pyrazol-1-yl]azetidin-3-yl}acetonitrile]
30 mg/kg oral twice daily
  colitis / disease onset: inhibited disease onset; also recorded: significantly (p<0.001) delayed colitis onset
  disease-associated weight loss: modulated disease-associated weight loss
[1]
  colon structural pathology: significant (p<0.01) reduction in colon structural pathology
  cumulative clinical disease score (symptoms): reduces symptoms; also recorded: significantly (p<0.0001) reduced
  incidence of rectal prolapse: significantly (p<0.01) lower
  lymphocytic infiltration and transmural inflammation: significantly (p<0.01) decreased
oral, vs vehicle
  gene expression in the colon: differential gene expression profiles in the colon
Systemic (oral) delivery
  colon morphology: significant protective effects on colon morphology
